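Where inhibition never reached the appropriate level, the endpoint shown equals the highest concentration tested. Otherwise, values were interpolated linearly from a five-concentration, 48-hour dose response in 96-well plates. At the GI50, growth is halved.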 Activity calls are given as the source filed them. Rule as the data show it: active = GI50 up to about 1.1 µM and inactive = higher.
Assays:
Assay in all cases: inhibition of tumour cell growth, NCI panel, 48 h
NCI-H522 = system: NCI-H522
KM12 = system: KM12
COLO 205 = system: COLO 205
SK-MEL-28 = system: SK-MEL-28
A549 = system: A549
HOP-62 = system: HOP-62
SF-268 = system: SF-268
SF-539 = system: SF-539
HT-29 = system: HT-29
SNB-75 = system: SNB-75
SW-620 = system: SW-620
OVCAR-4 = system: OVCAR-4
A498 = system: A498
SK-MEL-5 = system: SK-MEL-5
LOX IMVI = system: LOX IMVI

Measured: GI50

C/C(CN1C(=O)c2ccccc2C1=O)=N\NS(C)(=O)=O
inactive: NCI-H522 > 100 µM | KM12 > 100 µM | COLO 205 > 100 µM | SK-MEL-28 > 100 µM | A549 > 100 µM | HOP-62 > 100 µM | SF-268 > 100 µM | SF-539 > 100 µM | HT-29 > 100 µM | SNB-75 > 100 µM | SW-620 > 100 µM | OVCAR-4 > 100 µM | A498 > 100 µM | SK-MEL-5 > 100 µM

C[N+](C)=c1nc(N2CCc3ccccc3C2)ss1.[O-][Cl+3]([O-])([O-])[O-]
inactive: NCI-H522 > 100 µM | KM12 > 100 µM | COLO 205 42.8 µM | SK-MEL-28 > 100 µM | A549 > 100 µM | HOP-62 > 100 µM | SF-268 > 100 µM | SF-539 > 100 µM | SNB-75 83.6 µM | SW-620 > 100 µM | OVCAR-4 > 100 µM | A498 > 100 µM | SK-MEL-5 > 100 µM

O=C(Cc1ccccc1)NN1C(=O)C(Cl)C1c1ccc(O)cc1 (configuration not stated)
inactive: NCI-H522 > 100 µM | KM12 > 100 µM | COLO 205 > 100 µM | SK-MEL-28 > 100 µM | A549 > 100 µM | LOX IMVI > 100 µM | HOP-62 > 100 µM | SF-268 > 100 µM | HT-29 > 100 µM | SNB-75 47.2 µM | SW-620 > 100 µM | SK-MEL-5 > 100 µM

Cn1cnc([N+](=O)[O-])c1Sc1nc2cccnc2[nH]1
inactive: KM12 54.1 µM | COLO 205 17.8 µM | SK-MEL-28 62.5 µM | A549 90.2 µM | LOX IMVI 79.8 µM | HOP-62 > 100 µM | SF-268 74.8 µM | SF-539 > 100 µM | HT-29 > 100 µM | SNB-75 > 100 µM | SW-620 49.9 µM | OVCAR-4 41.1 µM | A498 > 100 µM | SK-MEL-5 > 100 µM

CCOC(=O)C1S/C(=N\c2ccc(Cl)c(Cl)c2)N=C1C (configuration not stated)
inactive: NCI-H522 24.7 µM | KM12 27.9 µM | COLO 205 29 µM | SK-MEL-28 73.8 µM | A549 28.4 µM | LOX IMVI 23.4 µM | HOP-62 56.9 µM | SF-268 54.6 µM | SF-539 34 µM | HT-29 19.7 µM | SNB-75 29.9 µM | SW-620 38 µM | OVCAR-4 20.3 µM | A498 26 µM

CCCCCCCCCC(=O)Oc1cccc2onc(C)c12
inactive: NCI-H522 > 100 µM | KM12 77.4 µM | COLO 205 > 100 µM | SK-MEL-28 > 100 µM | A549 > 100 µM | LOX IMVI > 100 µM | HOP-62 > 100 µM | SF-268 > 100 µM | SF-539 > 100 µM | HT-29 > 100 µM | SNB-75 > 100 µM | SW-620 > 100 µM | OVCAR-4 > 100 µM | SK-MEL-5 > 100 µM

COc1ccc(/C=C\c2cc(OC)c(OC(C)=O)c(OC)c2)cc1
inactive: NCI-H522 15.5 µM | KM12 5.06 µM | COLO 205 34.4 µM | SK-MEL-28 3.43 µM | A549 5.18 µM | HOP-62 5.92 µM | SF-268 10.5 µM | SF-539 2.32 µM | HT-29 12.4 µM | SNB-75 2.84 µM | SW-620 11.1 µM | OVCAR-4 26.4 µM | A498 14.2 µM | SK-MEL-5 5.55 µM

CC(C)(C)NN=C1C(C)(C)C(=NNC(C)(C)C)C1(C)C
inactive: NCI-H522 > 100 µM | KM12 > 100 µM | COLO 205 > 100 µM | SK-MEL-28 > 100 µM | A549 > 100 µM | LOX IMVI > 100 µM | HOP-62 > 100 µM | SF-268 > 100 µM | SF-539 > 100 µM | HT-29 > 100 µM | SNB-75 > 100 µM | SW-620 > 100 µM | OVCAR-4 > 100 µM | SK-MEL-5 > 100 µM

CCO/C=C\C12CCCC1NC(c1ccccc1)(c1ccccc1)O2 (configuration not stated)
inactive: NCI-H522 33.7 µM | KM12 35.7 µM | SK-MEL-28 40.5 µM | A549 32.8 µM | HOP-62 41.5 µM | SF-268 35.8 µM | SF-539 25.3 µM | HT-29 23.2 µM | SNB-75 19.5 µM | SW-620 38.4 µM | OVCAR-4 35.8 µM | A498 53.5 µM | SK-MEL-5 17.1 µM

C=C(C)C1CCC2(C)CC1c1c(c(C)cc3c1[nH]c1ccccc13)O2 (configuration not stated)
inactive: NCI-H522 15 µM | KM12 > 25 µM | COLO 205 > 25 µM | SK-MEL-28 > 25 µM | A549 > 25 µM | LOX IMVI > 25 µM | HOP-62 19 µM | SF-268 > 25 µM | SF-539 > 25 µM | HT-29 > 25 µM | SW-620 > 25 µM | OVCAR-4 11.7 µM | SK-MEL-5 > 25 µM

Brc1ccc2c(c1)C1(c3cc(Br)ccc3-2)c2cc(Br)ccc2-c2ccc(Br)cc21
inactive: NCI-H522 > 100 µM | KM12 > 100 µM | COLO 205 > 100 µM | SK-MEL-28 > 100 µM | A549 > 100 µM | LOX IMVI > 100 µM | HOP-62 > 100 µM | SF-268 > 100 µM | SF-539 > 100 µM | HT-29 > 100 µM | SW-620 > 100 µM | OVCAR-4 > 100 µM

O=C(O)CCSC(=O)Nc1cccc2ccccc12
inactive: KM12 > 100 µM | COLO 205 > 100 µM | SK-MEL-28 > 100 µM | A549 > 100 µM | LOX IMVI > 100 µM | HOP-62 > 100 µM | SF-268 > 100 µM | SF-539 > 100 µM | HT-29 > 100 µM | SNB-75 > 100 µM | SW-620 > 100 µM | OVCAR-4 > 100 µM | A498 > 100 µM | SK-MEL-5 > 100 µM

N#C/C(=C/c1cccc(Oc2ccccc2)c1)c1ccccc1
inactive: NCI-H522 > 100 µM | KM12 > 100 µM | COLO 205 55 µM | SK-MEL-28 > 100 µM | A549 > 100 µM | LOX IMVI > 100 µM | SF-268 > 100 µM | SF-539 > 100 µM | HT-29 > 100 µM | SNB-75 > 100 µM | SW-620 > 100 µM | OVCAR-4 > 100 µM | A498 > 100 µM | SK-MEL-5 > 100 µM

Cc1cn(C2CC(n3cncn3)C(C(C)O)O2)c(=O)[nH]c1=O (configuration not stated)
inactive: NCI-H522 > 100 µM | KM12 > 100 µM | COLO 205 > 100 µM | SK-MEL-28 > 100 µM | A549 > 100 µM | LOX IMVI > 100 µM | SF-268 > 100 µM | SF-539 > 100 µM | HT-29 > 100 µM | SNB-75 > 100 µM | SW-620 > 100 µM | OVCAR-4 > 100 µM | SK-MEL-5 > 100 µM

CC1CCC(O)C(C(O)CC2CC(=O)N(C)C(=O)C2)C1 (configuration not stated)
inactive: NCI-H522 > 100 µM | KM12 > 100 µM | COLO 205 > 100 µM | SK-MEL-28 > 100 µM | A549 > 100 µM | LOX IMVI > 100 µM | HOP-62 > 100 µM | SF-268 > 100 µM | SF-539 > 100 µM | HT-29 > 100 µM | SNB-75 > 100 µM | SW-620 > 100 µM | OVCAR-4 > 100 µM | A498 > 100 µM
